From PubChem BioAssay AID651554 (The Scripps Research Institute Molecular Screening Center, 2012)
Active and inactive are the calls of the source.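 Rule for the calls: active = either panel giving IC50 at or below 10 µM; inactive = both panels giving IC50 over 10 µM.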

Target: Melanocortin receptor 4 (Homo sapiens) (UniProt P32245)
Experiment: inhibition of MC4R-driven cAMP production – cell-based, FRET, biased ligands, late-stage follow-up (AID 651554)
Settings: U2OS MC4R, Melanotan II cAMP TR-FRET antagonist

Sequence of Melanocortin receptor 4 (Homo sapiens) (P32245 whole entry, looked up): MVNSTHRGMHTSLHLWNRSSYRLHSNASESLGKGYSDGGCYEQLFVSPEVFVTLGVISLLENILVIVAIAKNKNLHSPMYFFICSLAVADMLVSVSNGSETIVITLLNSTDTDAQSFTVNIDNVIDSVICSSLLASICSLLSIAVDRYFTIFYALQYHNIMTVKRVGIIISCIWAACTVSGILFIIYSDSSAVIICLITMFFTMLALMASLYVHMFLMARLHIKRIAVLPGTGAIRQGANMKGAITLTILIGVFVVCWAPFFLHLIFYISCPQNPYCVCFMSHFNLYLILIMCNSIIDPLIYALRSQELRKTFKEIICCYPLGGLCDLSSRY

SMILES	IC50 (run 2)	IC50 (run 1)
N#CC1c2ccccc2-n2nncc2CN1C(=O)c1ccccc1 (stereo not given)	> 50 µM (inactive)	–
CC(=O)c1ccc(Nc2nc3ccc(C(=O)N(CCC(C)C)CCC(C)C)cc3n2CCCN2CCCCC2)cc1	0.0365 µM	0.0174 µM
CNC(=O)c1cc(Oc2ccc(NC(=O)Nc3ccc(Cl)c(C(F)(F)F)c3)cc2)ccn1	–	inactive
CC1CCCCN1S(=O)(=O)c1ccc(NC(=O)c2nc(S(C)(=O)=O)ncc2Cl)cc1 (stereo not given)	–	inactive
C#CC(=O)N(c1ccc(OC)c(OC)c1)C(C(=O)NC1CCCC1)c1cccs1 (stereo not given)	–	> 50 µM (inactive)
O=C(NC1CCCC1)C(Nc1ccccc1)c1cccs1 (stereo not given)	> 50 µM (inactive)	–
CCC1CCCCN1S(=O)(=O)c1ccc(NC(=O)c2ccnc(S(C)=O)n2)cc1 (stereo not given)	> 50 µM (inactive)	–
CCC1CCCCN1S(=O)(=O)c1ccc(NC(=O)c2ccnc(S(C)(=O)=O)n2)cc1 (stereo not given)	inactive	–
CCC1CCCCN1S(=O)(=O)c1ccc(NC(=O)c2ccnc(SC)n2)cc1 (stereo not given)	–	> 50 µM (inactive)
Cc1ccccc1CN1Cc2cnnn2-c2ccccc2C1C#N (stereo not given)	–	> 50 µM (inactive)
COc1ccc(N(C(C)=O)C(C(=O)NC2CCCC2)c2cccs2)cc1OC (stereo not given)	–	> 50 µM (inactive)
CCC1CCCCN1S(=O)(=O)c1ccc(NC(=O)c2ccccc2)cc1 (stereo not given)	> 50 µM (inactive)	> 50 µM (inactive)
CC(=O)N(c1ccccc1)C(C(=O)NC1CCCC1)c1cccs1 (stereo not given)	> 50 µM (inactive)	–
Cc1ccccc1CN1Cc2ccccc2-n2nncc2C1	> 50 µM (inactive)	–
CCC1CCCCN1S(=O)(=O)c1ccc(NC(=O)c2nc(S(C)(=O)=O)ncc2Br)cc1 (stereo not given)	> 50 µM (inactive)	–
Cc1ccc(CN2Cc3ccccc3-n3nncc3C2)c(C)c1	> 50 µM (inactive)	–
CNC(=O)c1cc(Oc2ccc(NC(=O)CNc3ccc(Cl)c(C(F)(F)F)c3)cc2)ccn1	–	> 50 µM (inactive)
CNC(=O)c1cc(Oc2ccc(NCC(=O)Nc3ccc(Cl)c(C(F)(F)F)c3)cc2)ccn1	–	> 50 µM (inactive)
CCC1CCCCN1S(=O)(=O)c1ccc(NC(=O)c2cccc(S(C)(=O)=O)c2)cc1 (stereo not given)	–	> 50 µM (inactive)
Cc1ccc(CN2Cc3cnnn3-c3ccccc3C2C#N)c(C)c1 (stereo not given)	> 50 µM (inactive)	–
COc1ccc(N(C(=O)Cc2cccs2)C(C(=O)NC2CCCC2)c2cccs2)cc1OC (stereo not given)	> 50 µM (inactive)	–
COc1ccccc1C1(CCNC(C)c2cccs2)CCOC(C(C)C)C1 (stereo not given)	–	8.15 µM
COc1ccc(N(C(=O)c2ccco2)C(C(=O)NC2CCCC2)c2cccs2)cc1OC (stereo not given)	> 50 µM (inactive)	–
